In patent US9492377B2, “Effervescent composition in solid form for use in vaginal applications for the treatment of vaginal infections” (PROBIOTICAL S.P.A., priority 2011, dated 2016):

System: microorganisms

O=C(O)CCCCC(=O)O [Adipic acid]
portion of the total mortality observed accounted for by the toxicity: about 60% | toxicity (mortality) on its own (pH 4.24): 45.8%
